Assay results published in patent US20020142436A1, “Human adenylate cyclase and use therefor” (priority 1995, published 2002).
Square brackets hold non-standard residues; d marks the D form. Ends that are not written are not given here. Peptide text beside a SMILES is read from it. ξ: configuration not given here. ξNMeBmt = C/C=C/C[C@@H](C)[C@@H](O)C(NC)C(=O)O; NMeL = CN[C@@H](CC(C)C)C(=O)O; NMeV = CN[C@H](C(=O)O)C(C)C; Abu = CC[C@H](N)C(=O)O; Sar = CNCC(=O)O

Assays:
[1] = system: AtT20 cells; assay: CRF-induced cAMP accumulation in AtT20 cells; assay type: cell-based, mouse; details: for cAMP response to CRF after lowering intracellular free Ca2+: EGTA 2 mmol/l, nimodipine 1 μmol/l, BAPTA-AM 20 μmol/l in preincubation, IBMX 0.5 mmol/l; for CRF-induced cAMP formation: 1 μmol/l FK506, 10 nmol/l CRF, calcium-depleted cells
Experimental: Experiments for cAMP were all carried out in Hanks balanced salt solution containing 2 mM CaCl2 and 1 mM MgSO4 buffered with 25 mM HEPES pH 7.4 and supplemented with 0.25% (w/v) of bovine serum albumin. The cells were preincubated in serum free medium for 1 hour, after which blockers of phosphosdiesterase (isobutylmethylxanthine 0.5 mM (IBMX) and/or rolipram 0.1 mM) along with various other treatments were applied for 30 minutes at 37° C. Subsequently the cells were cooled to 22° C. for 5 minutes in a water bath and agonists were added for 10 minutes. The reaction was stopped by the addition of 0.2 mol/l HCl to achieve a final concentration of 0.1 mol/l (Brooker et al, (1979) Adv. in Cyclic Nucl. Res. Vol. 10, G. Brooker, P. Greengard and G. A. Robinson, Raven Press, New York, 2-34).
In some experiments cells were preincubated for 30 minutes in medium containing 2 mmol/l EGTA and no added Ca^2+, supplemented with 5 μmol/l A23187 and 2.5 μmol/l nifedipine in order to deplete rapidly mobilized cellular stores of Ca^2+. […] The rationale for this pretreatment is that calcineurin reportedly influences L-channel activity (Lai et al, (1993) J. Neurochem. 61:1333-1339; and Armstrong et al, (1987) Proc. Natl. Acad. Sci. U.S.A. 84:2518-2522), whereas the treatment regimen used here would make Ca^2+ entry independent of this regulation.
These compounds were made up in ethanol at 10^−3 mol/l and diluted with the incubation medium to the desired final concentrations. In some cases cells were preincubated with L685,818 the structural analogue of FK506 that binds to FKBP-12 and inhibits prolyl-isomerase activity but is devoid of immunosuppressant activity (Dumont et al, (1992) J. Exp. Med. 176:751-760) for 10 minutes before the addition of FK506 for 30 minutes at 37° C.

[2] = system: AtT20 cells; assay: cAMP accumulation induced by β-adrenergic stimulation (isoproterenol) in AtT20 cells; assay type: cell-based, mouse
[3] = system: AtT20 cells; assay: forskolin-evoked cAMP accumulation in AtT20 cells; assay type: cell-based, mouse
Experimental: The cells were preincubated in serum free medium for 1 hour, after which blockers of phosphosdiesterase (isobutylmethylxanthine 0.5 mM (IBMX) and/or rolipram 0.1 mM) along with various other treatments were applied for 30 minutes at 37° C. Subsequently the cells were cooled to 22° C. for 5 minutes in a water bath and agonists were added for 10 minutes. […] Res. Vol. 10, G. Brooker, P. Greengard and G. A. Robinson, Raven Press, New York, 2-34).

[4] = system: AtT20 cells; assay: ACTH release by AtT20 cells; assay type: cell-based, mouse
[5] = system: HEK293 cells transfected with AC; assay: cAMP in HEK293 cells transiently transfected with AC; assay type: cell-based, human; details: FK506 2 μmol/l, L-685,818 100 μmol/l; 1 mmol/l IBMX, 0.1 mmol/l rolipram
[6] = system: T1, GST fusion protein of the FKBP12 like domain (residues 594-611) of mouse AC
T1 sequence: IDDSRESSGPRGQGTASP

[7] = isoproterenol 2 nmol/l, pretreatment FK506 1 μmol/l or BAPTA/AM 20 μmol/l, IBMX 0.5 mmol/l, rolipram 0.1 mmol/l
[8] = isoproterenol 10 nmol/l, pretreatment FK506 1 μmol/l or BAPTA/AM 20 μmol/l, IBMX 0.5 mmol/l, rolipram 0.1 mmol/l
[9] = isoproterenol 1000 nmol/l, pretreatment FK506 1 μmol/l or BAPTA/AM 20 μmol/l, IBMX 0.5 mmol/l, rolipram 0.1 mmol/l

CNc1ccc2oc(C[C@H]3O[C@@]4(CC[C@H]3C)O[C@H]([C@H](C)C(=O)c3ccc[nH]3)[C@H](C)C[C@H]4C)nc2c1C(=O)O [A23187]
cAMP response to CRF after lowering intracellular free Ca2+ [1]: markedly increased the cAMP response to CRF

CC(=O)OCOC(=O)CN(CC(=O)OCOC(C)=O)c1ccccc1OCCOc1ccccc1N(CC(=O)OCOC(C)=O)CC(=O)OCOC(C)=O [BAPTA-AM, [1,2-bis-(o-Aninophenoxy)-ethane-N,N,N′,N′-tetraacetic acid tetra-(acetoxymethyl)-ester]]
cAMP response to CRF after lowering intracellular free Ca2+ [1]: markedly increased the cAMP response to CRF | isoproterenol induced cAMP formation [2]: enhanced | cAMP accumulation ([2]; isoproterenol 0.4 nmol/l, pretreatment FK506 1 μmol/l or BAPTA/AM 20 μmol/l, IBMX 0.5 mmol/l, rolipram 0.1 mmol/l): 0.96 ± 0.06 | cAMP accumulation [2, 7]: 3.6 ± 0.6 | cAMP accumulation [2, 8]: 11.4 ± 0.9 | cAMP accumulation ([2]; isoproterenol 100 nmol/l, pretreatment FK506 1 μmol/l or BAPTA/AM 20 μmol/l, IBMX 0.5 mmol/l, rolipram 0.1 mmol/l): 35.5 ± 3.4 | cAMP accumulation [2, 9]: 46.9 ± 9 | enhancement of forskolin-evoked cAMP accumulation ([3]; cells loaded with BAPTA-AM): 15%

O=C(O)CN(CCOCCOCCN(CC(=O)O)CC(=O)O)CC(=O)O [EGTA]
cAMP response to CRF after lowering intracellular free Ca2+ [1]: markedly increased the cAMP response to CRF

C=CC[C@@H]1/C=C(\C)C[C@H](C)C[C@H](OC)[C@H]2O[C@@](O)(C(=O)C(=O)N3CCCC[C@H]3C(=O)O[C@H](/C(C)=C/[C@@H]3CC[C@@H](O)[C@H](OC)C3)[C@H](C)[C@@H](O)CC1=O)[C@H](C)C[C@@H]2OC [FK506]
EC50 ([1]; Mus musculus, AtT20, read-out: apparent EC50 to augment cAMP accumulation induced by CRF): ~10 nM | CRF-induced cAMP formation ([1]; extracellular free Ca2+ 0 mmol/l, 0.5 mmol/l IBMX): 10.3 ± 0.10 pmol/well | CRF-induced cAMP formation ([1]; extracellular free Ca2+ 0.5 mmol/l, 0.5 mmol/l IBMX): 10.0 ± 0.11 pmol/well | CRF-induced cAMP formation ([1]; extracellular free Ca2+ 1.0 mmol/l, 0.5 mmol/l IBMX): 10.4 ± 0.10 pmol/well | CRF-induced cAMP formation ([1]; extracellular free Ca2+ 1.5 mmol/l, 0.5 mmol/l IBMX): 11.3 ± 0.13 pmol/well | CRF-induced cAMP formation ([1]; extracellular free Ca2+ 2.0 mmol/l, 0.5 mmol/l IBMX): 9.5 ± 0.11 pmol/well | cAMP accumulation [2, 7]: 3.3 ± 0.7 | cAMP accumulation [2, 8]: 15.3 ± 2.5 | cAMP accumulation [2, 9]: 45.3 ± 9 | cAMP accumulation evoked by forskolin ([3]; 10 or 30 μM forskolin): no significant effect | EC50 ([4]; Mus musculus, AtT20, read-out: apparent EC50 to stimulate ACTH release): ~10 nM | unstimulated cAMP levels [5]: 3 fold

CC(C)NCC(O)c1ccc(O)c(O)c1 (centres unmarked) [Isoproterenol]
cAMP accumulation ([2]; isoproterenol 0.4 nmol/l, no pretreatment): 0.7 ± 0.04 | cAMP accumulation ([2]; isoproterenol 2 nmol/l, no pretreatment): 2.0 ± 0.08 | cAMP accumulation ([2]; isoproterenol 10 nmol/l, no pretreatment): 9.5 ± 0.33 | cAMP accumulation ([2]; isoproterenol 100 nmol/l, no pretreatment): 19.5 ± .5 | cAMP accumulation ([2]; isoproterenol 1000 nmol/l, no pretreatment): 32.1 ± 0.5

C/C=C/C[C@@H](C)[C@@H](O)C1C(=O)N[C@@H](CC)C(=O)N(C)CC(=O)N(C)[C@@H](C(C)C)C(=O)N[C@@H](C(C)C)C(=O)N(C)[C@@H](CC(C)C)C(=O)N[C@@H](C)C(=O)N[C@H](C)C(=O)N(C)[C@@H](CC(C)C)C(=O)N(C)[C@@H](CC(C)C)C(=O)N(C)[C@@H](C(C)C)C(=O)N1C (some centres unmarked) [MeVal^4-cyclosporin A] (cyclo(A[dA][NMeL][NMeL][NMeV][ξNMeBmt][Abu][Sar][NMeV]V[NMeL]))
CRF-induced cAMP production ([1]; 10 nmol/l CRF, 0.5 mmol/l IBMX, drug preincubated 30 minutes): enhanced CRF-induced cAMP production in a concentration dependent manner

CRF: hypothalamic neuropeptide corticotropin-releasing factor (SEEPPISLDLTFHLLREVLEMARAEQLAQQAHSNRKLMEII; ends and bridges not checked; UniProt P06850 154-194, looked up)
cAMP level in the presence of CRF ([1]; 10 nmol/l CRF (FIG. 3A)): 12 pmol/well*10minutes | increment of cAMP caused by CRF ([1]; 10 nmol/l CRF, 0.5 mmol/l isobutylmethylxanthine (FIG. 1)): 6.1 pmol/well | CRF-stimulated ACTH release ([4]; FIG. 7A, value taken as 100%): 22±1 fmol/well*30 minutes

cAMP dependent protein kinase
phosphorylation of the cyclase portion of the GST fusion protein [6]: can be phosphorylated by cAMP dependent protein kinase

calcineurin (protein phosphatase 2B), as used on the GST fusion protein
dephosphorylation of the cyclase portion of the GST fusion protein [6]: dephosphorylated in a calcium dependent manner by calcineurin

pertussis toxin
suppression of CRF-induced cAMP formation by extracellular Ca2+ ([1]; Ca2+-depleted cells, pertussis toxin treatment): had no effect on the suppression of CRF-induced cAMP formation by extracelluar Ca^2+ | inhibitory G-protein function (somatostatin-mediated inhibition of cAMP formation) ([1]; pertussis toxin 1 μg/ml): strongly suppressed inhibitory G-protein function
